Among the data in patent US12606528B2, “Methods and materials for inhibiting NF-kB activity” (University of Pittsburgh - Of the Commonwealth System of …, priority 2019, dated 2026) are IC50 values, retold here.

Usually IC50 stands for the concentration that gives 50% inhibition.

The structures appear in SMILES notation. Read-outs that look alike come from different tables or passages of the source.

One test has as its system TNF release. Description: TNF assay: TNF release from LPS-stimulated human PBMCs (TNF ELISA). Type of test: cell-based. The conditions noted are these: PBMC, read-out: IC50 (TNF assay). The method in brief:
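TNF ELISA on supernatants read-out; cells were 10k human PBMCs/well given LPS at 10 ng/mL for 18 h after a 2 h compound pre-incubation across a concentration series, with IC50 derived for suppression of TNF secretion.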
In general terms: In an ELISA, binding on a coated surface is turned into a signal by an enzyme label.

A further test relates to NF-κB. Kind of test: NF-κB assay: THP1-NF-κB-LUC cells, LPS-stimulated secreted luciferase. Type of test: cell-based. The conditions noted are these: THP1-NF-κB-LUC cells, read-out: IC50 (NF-κB assay). The method in brief: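 THP1-NF-κB-LUC cells (25k/well) were pretreated with compounds for 2 h, then stimulated with LPS (10 ng/mL) for 18 h. Secreted luciferase was measured and normalized to vehicle, and IC50 was fitted from the concentration series.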

Setting [1] is: human PBMCs, compounds 2 hours before LPS (10 ng/ml) for 18 hours, supernatant TNF ELISA.
Setting [2] is: compounds 2 hours before LPS (10 ng/mL) for 18 hours, secreted luciferase.
The mark [3] stands for this setting: LPS-stimulated human PBMCs, TNF ELISA.

`COc1ccc(NS(=O)(=O)c2cc(S(C)(=O)=O)cc3c2OCC(=O)N3)cc1Cl` [BC19429]: the IC50 in the test on TNF release (setting [1]) and in the test on NF-κB (setting [2]) was > 10 µM throughout.
In the case of `CS(=O)(=O)c1cc2c(c(S(=O)(=O)Nc3ccc(F)cc3)c1)OCC(=O)N2` [BC19430], the IC50 with TNF release (setting [1]) was > 10 µM; with NF-κB (setting [2]) it was < 0.1 µM.
The matching figures for `CS(=O)(=O)c1cc2c(c(S(=O)(=O)Nc3ccc(C#N)cc3)c1)OCC(=O)N2` [BC19431]: > 10 µM and < 0.1 µM.
In the same order, the values of `Cc1ccc(NS(=O)(=O)c2c(C)c(Cl)cc3c2OCC(=O)N3)cc1` [BC19432] are > 10 µM and 0.1 to 1 µM.
In the case of `Cc1ccc(NS(=O)(=O)c2c(C)c(Cl)cc3c2OCC(=O)N3)cc1Cl` [BC19433], the results for the concentration for half-maximal inhibition (IC50) in the test on TNF release (setting [1]) and in the test on NF-κB (setting [2]) were > 10 µM and < 0.1 µM, respectively.
In the same order, the values of `Cc1c(Cl)cc2c(c1S(=O)(=O)Nc1ccc(Cl)cc1)OCC(=O)N2` [BC19434] are > 10 µM and < 0.1 µM.
In the same order, the values of `CCS(=O)(=O)c1cc2c(c(S(=O)(=O)Nc3ccc(OC(F)(F)F)cc3)c1)OCC(=O)N2` [BC19435] are > 10 µM and < 0.1 µM.
As for `CCS(=O)(=O)c1cc2c(c(S(=O)(=O)Nc3ccc(C)c(F)c3)c1)OCC(=O)N2` [BC19436], the values for the IC50 in the test on TNF release (setting [1]) and in the test with NF-κB (setting [2]) were > 10 µM and < 0.1 µM, respectively.
The matching figures for `CCS(=O)(=O)c1cc2c(c(S(=O)(=O)Nc3ccccc3)c1)OCC(=O)N2` [BC19437]: > 10 µM and < 0.1 µM.
For the compound `CCS(=O)(=O)c1cc2c(c(S(=O)(=O)Nc3ccc(OC)cc3)c1)OCC(=O)N2` [BC19438], the IC50 in the test with TNF release (setting [1]) is > 10 µM; with NF-κB (setting [2]), < 0.1 µM.
In the same order, the values of `CCc1cccc(NS(=O)(=O)c2cc(S(=O)(=O)CC)cc3c2OCC(=O)N3)c1` [BC19439] are > 10 µM and < 0.1 µM.
The matching figures for `CCS(=O)(=O)c1cc2c(c(S(=O)(=O)Nc3cccc(F)c3)c1)OCC(=O)N2` [BC19440]: > 10 µM and < 0.1 µM.
The matching figures for `CCS(=O)(=O)c1cc2c(c(S(=O)(=O)Nc3cccc(Cl)c3)c1)OCC(=O)N2` [BC19441]: > 10 µM and < 0.1 µM.
Take `CCS(=O)(=O)c1cc2c(c(S(=O)(=O)Nc3ccc(F)cc3Cl)c1)OCC(=O)N2` [BC19442]: the results for the IC50 with TNF release (setting [1]) and in the test with NF-κB (setting [2]) were > 10 µM and 0.1 to 1 µM, respectively.
The matching figures for `CCS(=O)(=O)c1cc2c(c(S(=O)(=O)Nc3ccc(F)cc3)c1)OCC(=O)N2` [BC19443]: > 10 µM and < 0.1 µM.
On to `Cn1cnnc1-c1ccc2nc(-c3ccc(F)cc3F)c(-c3ccccc3)nc2c1` [BC19444], for which the IC50 with TNF release (setting [3]) was > 10 µM; with NF-κB (LPS-stimulated), 0.1 to 1 µM.
The matching figures for `CN1CCN(C(=O)c2ccc3nc(-c4ccc(OC(F)(F)F)cc4)c(-c4ccc(OC(F)(F)F)cc4)nc3c2)CC1` [BC19445]: > 10 µM and > 10 µM.
Take `CN1CCN(C(=O)c2ccc3nc(-c4ccc(C#N)cc4)c(-c4ccc(C#N)cc4)nc3c2)CC1` [BC19446]: the IC50 in the test on TNF release (setting [3]) and with NF-κB (LPS-stimulated) was > 10 µM in each case.
Consider `CNC(=O)c1ccc2nc(-c3ccc(OC(F)(F)F)cc3)c(-c3ccc(OC(F)(F)F)cc3)nc2c1` [BC19447], for which the IC50 in the test on TNF release (setting [3]) and with NF-κB (LPS-stimulated) was > 10 µM each time.
Turning to `Oc1ccc2nc(-c3ccc(F)cc3)c(-c3ccc(F)cc3)nc2n1` [BC19448], the IC50 with TNF release (setting [3]) is > 10 µM; in the test on NF-κB (LPS-stimulated), 0.1 to 1 µM.
In the same order, the values of `O=C(O)c1ccc2nc(-c3ccc(OC(F)(F)F)cc3)c(-c3ccc(OC(F)(F)F)cc3)nc2c1` [BC19449] are > 10 µM and > 10 µM.
`CN1CCN(C(=O)c2ccc3nc(-c4ccc(Cl)cc4)c(-c4ccc(Cl)cc4)nc3c2)CC1` [BC19450]: the IC50 was > 10 µM with TNF release (setting [3]) and 1 to 10 µM in the test on NF-κB (LPS-stimulated).
As for `C#CCNC(=O)c1ccc2nc(-c3ccc(Cl)cc3)c(-c3ccc(Cl)cc3)nc2c1` [BC19451], the results for the IC50 in the test with TNF release (setting [3]) and with NF-κB (LPS-stimulated) were > 10 µM and 0.1 to 1 µM, respectively.
